# Experimental data reported in US12642860B2, “Filamentous nanostructures and their use for treatment of pulmonary disease” (THE JOHNS HOPKINS UNIVERSITY, priority 2019, dated 2026).
# How the values were obtained:
# [1] = Loading capacity of drugs/dye within KPA filaments; assay type: physicochemical; settings: encapsulated in KPA filaments, % by mass
# Source text: FIGS. 20A-20C show (20A) the molecular structure of the lung disease-relevant drugs and fluorescent dye used in loading within the supramolecular filaments: paclitaxel (PTX, MW=853.92 g/mol), the anticancer drug; coumarin 6 (Cou6, MW=350.44 g/mol), the green fluorescent dye; and budesonide (BUD, MW=430.54 g/mol), the anti-inflammatory glucocorticoid used to treat symptoms of asthma and chronic obstructive pulmonary disease (top). (20B) The encapsulation process of hydrophobic drugs and dyes within supramolecular peptide amphiphile (PA)-based filaments, where dissolution of PA monomers and drug/dye in aqueous solutions results in their self-assembly with the drug/dye loaded within the hydrophobic core (left). The loading capacity of PTX, Cou6, and BUD based on mass (left axis, solid bars) and mole (right axis, checkered bars) percent within KPA supramolecular filaments (right). Data are given as mean±SD (n=5). (20C) Representative transmission electron microscopy (TEM) images of KPA filaments loaded with PTX (i, ii), Cou6 (iii, iv), and BUD (v, vi) before and after nebulization at 500 μM. Diameters are given as mean±SD (n=35).
# With better insight into nebulization stability and the mechanism of supramolecular filament breakdown, we next sought to assess whether these systems can successfully carry drugs and dyes within aerosol droplets for potential inhalation-based therapies. […]
# [2] = Jet nebulizer release profile and output; assay type: physicochemical; settings: within KPA filaments 1 mM
# Method: FIGS. 24A-24F are jet nebulizer release profiles of EPA, OPA, and KPA supramolecular filaments with starting formulation concentrations at (24A) 10 μM, (24B) 100 μM, and (24C) 1000 μM, showing a linear release pattern for each system over the course of a 10 min nebulization event (3 mL solution). Data given represent mean #SD (n=3); dashed lines represent line of best fit from linear regression analysis. (24D) The aerosol output rate (μg/min) of the supramolecular filaments from a jet nebulizer at different formulation concentrations, showing no statistically significant difference (ns) between filaments at the same concentration and output rate scales linearly with increasing concentration. Data are given as mean±SD (p>0.05 amongst filament systems, ****p<0.0001 amongst concentrations, two-way ANOVA, n=3). […]
# We next monitored the release pattern of the supramolecular filaments in aerosol droplets from a jet nebulizer device alongside the output rate. First analyzing the blank EPA, OPA, and KPA filaments, 3 mL solutions of the filaments were loaded into a jet nebulizer at varying concentrations and the remaining concentration of PA molecules and fluid weight loss were monitored over the course of a 10 min nebulization event. FIGS. 24A-C represents the measured release profile of the three filament systems at 10 µM, 100 μM, and 1000 μM, respectively. […]
Structure (SMILES),loading capacity by mass within KPA filaments [1],aerosol output rate of encapsulated molecules [2]
"CCN(CC)c1ccc2cc(-c3nc4ccccc4s3)c(=O)oc2c1 [Cou6, coumarin 6]",3.7%,comparable but higher than PTX
"CC(=O)O[C@H]1C(=O)[C@@]2(C)[C@H]([C@H](OC(=O)c3ccccc3)[C@]3(O)C[C@H](OC(=O)[C@H](O)[C@@H](NC(=O)c4ccccc4)c4ccccc4)C(C)=C1C3(C)C)[C@]1(OC(C)=O)CO[C@@H]1C[C@@H]2O [PTX, paclitaxel]",1.5%,
